We go through 28 compounds from patent US20240383852A1, “ANTI-VIRAL COMPOUNDS” (INFEX Therapeutics Limited, priority 2021, published 2024).

Series [1] concerns the target T1, SARS-CoV-2 PLpro (Severe acute respiratory syndrome coronavirus 2, UniProt P0DTD1).
T1 construct: containing 60 nM papain-like protease
Description: biochemical.

Series [2] relates to human Hep G2 cells (ATCC HB-8065). The series can be described thus: Cytotoxicity in Hep G2 cells (CellTiter-Glo). Type of series: cell-based. For orientation: In ATP-based viability assays light output follows the ATP content of the culture.
Setting [3] is: 60 nM papain-like protease, 50 μM Z-RLRGG-AMC, pH 7.5, 37° C., read-out: SARS-CoV-2 PLpro IC50.
The mark [4] stands for this setting: Hep G2 cells, 100 μM test article, 24-hour exposure.

Usually IC50 stands for the concentration at which inhibition is half-maximal.

Like-named read-outs stand apart in the source and are kept apart here. Some results are limits rather than exact numbers.

`Cc1ccc(C2=CCNCC2)c(C)c1C(=O)N[C@H](C)c1cccc2ccccc12` [Example 155, 2,6-Dimethyl-N-[(1R)-1-(1-naphthyl)ethyl]-3-(1,2,3,6-tetrahydropyridin-4-yl)benzamide] registered an IC50 in series [1] of under 2 µM. Further, the “% Cell Viability” value in series [2] (human, 24 h, 100 μM) is on record as 0.6%.

For `COc1cc(OC)c([C@@H](C)NC(=O)c2cc(N3CCN(C)CC3)ccc2C)cc1-c1ccccc1` [Example 216, N-[(1R)-1-(2,4-Dimethoxy-5-phenyl-phenyl)ethyl]-2-methyl-5-(4-methylpiperazin-1-yl)benzamide], in series [1] (setting [3]), the IC50 is under 2 µM. Moreover, in series [2] (setting [4]), the “% Cell Viability” value came to 0.6%.

With `Cc1ccc(N2CCN(C)CC2)cc1C(=O)N[C@H](C)c1cccc(-c2ccccc2CO)c1` [Example 80, N-[(1R)-1-[3-[2-(Hydroxymethyl)phenyl]phenyl]ethyl]-2-methyl-5-(4-methylpiperazin-1-yl)benzamide], in series [1] (setting [3]), the concentration for half-maximal inhibition (IC50) is under 2 µM. The “% Cell Viability” value in series [2] (setting [4]) came out at 79.5%.

With `CNC(=O)c1cccc([C@@H](C)NC(=O)c2cc(N3CCN(C)CC3)ccc2C)c1` [Example 312, 2-Methyl-N-[(1R)-1-[3-(methylcarbamoyl)phenyl]ethyl]-5-(4-methylpiperazin-1-yl)benzamide], in series [1] (setting [3]), the IC50 was under 10 µM. The “% Cell Viability” value in series [2] (setting [4]) turned out to be 78.3%.

For the compound `Cc1ccc(N2CCS(=O)(=O)CC2)cc1C(=O)N[C@H](C)c1cccc2ccccc12` [Example 26, 5-(1,1-Dioxo-1,4-thiazinan-4-yl)-2-methyl-N-[(1R)-1-(1-naphthyl)ethyl]benzamide], the IC50 in series [1] (setting [3]) is under 100 µM. Also, in series [2] (setting [4]), the “% Cell Viability” value worked out at 82.8%.

`COc1ccc([C@@H](C)NC(=O)c2cc(C3CCN(C)CC3)ccc2C)cc1Br` [Example 299, N-[(1R)-1-(3-Bromo-4-methoxy-phenyl)ethyl]-2-methyl-5-(1-methyl-4-piperidyl)benzamide]: the IC50 in series [1] (setting [3]) was under 2 µM. Also, in series [2] (setting [4]), the “% Cell Viability” value is 76.2%.

Turning to `COc1cc(-c2cnn(C)c2)cc([C@@H](C)NC(=O)c2cc(N3CCCN(C)CC3)ccc2C)c1` [Example 247, N-[(1R)-1-[3-Methoxy-5-(1-methylpyrazol-4-yl)phenyl]ethyl]-2-methyl-5-(4-methyl-1,4-diazepan-1-yl)benzamide], the IC50 in series [1] (setting [3]) was under 2 µM. Also, in series [2] (setting [4]), the “% Cell Viability” value is on record as 56.7%.

In the case of `COc1cc(-c2cnn(C)c2)cc([C@@H](C)NC(=O)c2cc(N3CCN4CCCC4C3)ccc2C)c1` (stereo partly drawn) [Example 243, 5-(3,4,6,7,8,8a-Hexahydro-1H-pyrrolo[1,2-a]pyrazin-2-yl)-N-[(1R)-1-[3-methoxy-5-(1-methylpyrazol-4-yl)phenyl]ethyl]-2-methyl-benzamide], the IC50 in series [1] (setting [3]) was under 2 µM. Further, the “% Cell Viability” value in series [2] (setting [4]) turned out to be 70.9%.

`Cc1ccc(N2CCN(C3CC3)CC2)cc1C(=O)N[C@H](C)c1cccc2ccccc12` [Example 115, 5-(4-Cyclopropylpiperazin-1-yl)-2-methyl-N-[(1R)-1-(1-naphthyl)ethyl]benzamide]: in series [1] (setting [3]), the IC50 is under 2 µM. Besides, the “% Cell Viability” value in series [2] (setting [4]) is 26.7%.

As to `Cc1ccc(N2CCN(C)CC2)cc1C(=O)N[C@H](C)c1cccc(-c2cccc(C(=O)N3CCOCC3)c2)c1` [Example 92, 2-Methyl-5-(4-methylpiperazin-1-yl)-N-[(1R)-1-[3-[3-(morpholine-4-carbonyl)phenyl]phenyl]ethyl]benzamide], the IC50 in series [1] (setting [3]) is under 2 µM. Besides, the “% Cell Viability” value in series [2] (setting [4]) stood at 76.9%.

For the compound `COc1ccc([C@@H](C)NC(=O)c2cc(N3CC4(CCNCC4)C3)ccc2C)cc1-c1cnn(C)c1` [Example 258, 5-(2,7-Diazaspiro[3.5]nonan-2-yl)-N-[(1R)-1-[4-methoxy-3-(1-methylpyrazol-4-yl)phenyl]ethyl]-2-methyl-benzamide], in series [1] (setting [3]), the IC50 is under 2 µM. Further, the “% Cell Viability” value in series [2] (setting [4]) was 81.8%.

On to `Cc1ccc(N2CCN(C)CC2)cc1C(=O)N[C@H](C)c1cccc(-c2ccc(N3CCN(CCC(=O)O)CC3)cc2)c1` [Example 165, 3-[4-[4-[3-[(1R)-1-[[2-Methyl-5-(4-methylpiperazin-1-yl)benzoyl]amino]ethyl]phenyl]phenyl]piperazin-1-yl]propanoic acid], for which the IC50 in series [1] (setting [3]) was under 2 µM. In addition, the “% Cell Viability” value in series [2] (setting [4]) worked out at 132%.

Take `Cc1ccc(N2CCN(C)CC2)cc1C(=O)N[C@H](C)c1cccc(N2CCN(CCC(=O)O)CC2)c1` [Example 166, 3-[4-[3-[(1R)-1-[[2-Methyl-5-(4-methylpiperazin-1-yl)benzoyl]amino]ethyl]phenyl]piper-azin-1-yl]propanoic acid]: the IC50 in series [1] (setting [3]) is under 10 µM. In addition, the “% Cell Viability” value in series [2] (setting [4]) came out at 100.9%.

Take `Cc1ccc(N2CCN(C)CC2)cc1C(=O)N[C@H](C)c1cccc(-c2ccc(=O)n(C)c2)c1` [Example 48, 2-Methyl-N-[(1R)-1-[3-(1-methyl-6-oxo-3-pyridyl)phenyl]ethyl]-5-(4-methylpiperazin-1-yl)benzamide]: the IC50 in series [1] (setting [3]) was under 5 µM. Besides, in series [2] (setting [4]), the “% Cell Viability” value is 63.6%.

Turning to `COc1ccc([C@@H](C)NC(=O)c2cc(N3C[C@H]4C[C@@H]3CN4C)ccc2C)cc1-c1csc(C(=O)NC2CC2)c1` [Example 287, N-Cyclopropyl-4-[2-methoxy-5-[(1R)-1-[[2-methyl-5-[(1R,4R)-5-methyl-2,5-diazabicyclo[2.2.1]heptan-2-yl]benzoyl]amino]ethyl]phenyl]thiophene-2-carboxamide], in series [1] (setting [3]), the IC50 was under 2 µM. Also, in series [2] (setting [4]), the “% Cell Viability” value was 43.4%.

Consider `CNC(=O)c1cc(-c2cc([C@@H](C)NC(=O)c3cc(N4CCN(C)CC4)ccc3C)ccc2OC)cs1` [Example 288, 4-[2-Methoxy-5-[(1R)-1-[[2-methyl-5-(4-methylpiperazin-1-yl)benzoyl]amino]ethyl]phenyl]-N-methyl-thiophene-2-carboxamide], for which the IC50 in series [1] (setting [3]) is under 2 µM. Besides, the “% Cell Viability” value in series [2] (setting [4]) was found to be 47.2%.

With `Cc1ccc(N2CCN(C)CC2)cc1C(=O)N[C@H](C)c1cccc(-c2ccc(=O)[nH]c2)c1` [Example 66, 2-Methyl-5-(4-methylpiperazin-1-yl)-N-[(1R)-1-[3-(6-oxo-1,6-dihydropyridin-3-yl)phenyl]ethyl]benzamide], the half-inhibitory concentration (IC50) in series [1] (setting [3]) is under 2 µM. Besides, in series [2] (setting [4]), the “% Cell Viability” value came to 100.8%.

Take `Cc1ccc(N2CCN(C)CC2)cc1C(=O)N[C@H](C)c1cccc(C(=O)NC[C@H](O)CO)c1` [Example 309, N-[(1R)-1-[3-[[(2S)-2,3-Dihydroxypropyl]carbamoyl]phenyl]ethyl]-2-methyl-5-(4-methylpiperazin-1-yl)benzamide]: the IC50 in series [1] (setting [3]) was under 5 µM. For the same compound, the “% Cell Viability” value in series [2] (setting [4]) amounted to 118.2%.

`COc1ccc([C@@H](C)NC(=O)c2cc(N3CCN(C)CC3)ccc2C)cc1-c1nnc(C)s1` [Example 236, N-[(1R)-1-[4-Methoxy-3-(5-methyl-1,3,4-thiadiazol-2-yl)phenyl]ethyl]-2-methyl-5-(4-methylpiperazin-1-yl)benzamide]: the IC50 in series [1] (setting [3]) is under 2 µM. Moreover, in series [2] (setting [4]), the “% Cell Viability” value was determined as 79.5%.

With `COc1ccc([C@@H](C)NC(=O)c2cc(N3CCN(C)CC3)ccc2C)cc1-c1ccsc1` [Example 206, N-[(1R)-1-[4-Methoxy-3-(3-thienyl)phenyl]ethyl]-2-methyl-5-(4-methylpiperazin-1-yl)benzamide], the IC50 in series [1] (setting [3]) was under 2 µM. Besides, the “% Cell Viability” value in series [2] (setting [4]) amounted to 0.8%.

As to `COc1cc(OC)cc([C@@H](C)NC(=O)c2cc(N3CCN(C)CC3)ccc2C)c1` [Example 31, N-[(1R)-1-(3,5-Dimethoxyphenyl)ethyl]-2-methyl-5-(4-methylpiperazin-1-yl)benzamide], the IC50 in series [1] (setting [3]) was under 5 µM. For the same compound, the “% Cell Viability” value in series [2] (setting [4]) was determined as 90.6%.

Take `COc1cc(-c2cn(C)nc2C)cc([C@@H](C)NC(=O)c2cc(N3CCN4CCCC4C3)ccc2C)c1` (stereo partly drawn) [Example 256, 5-(3,4,6,7,8,8a-Hexahydro-1H-pyrrolo[1,2-a]pyrazin-2-yl)-N-[(1R)-1-[3-(1,3-dimethylpyrazol-4-yl)-5-methoxy-phenyl]ethyl]-2-methyl-benzamide]: in series [1] (setting [3]), the IC50 was under 2 µM. Moreover, the “% Cell Viability” value in series [2] (setting [4]) is listed as 70.1%.

With `Cc1ccc(N2CCN(C)CC2)cc1C(=O)N[C@H](C)c1cccc(-c2cccc(CS(C)(=O)=O)c2)c1` [Example 52, 2-Methyl-5-(4-methylpiperazin-1-yl)-N-[(1R)-1-[3-[3 (methylsulfonylmethyl)phenyl]phenyl]ethyl]benzamide], the IC50 in series [1] (setting [3]) is under 2 µM. Further, in series [2] (setting [4]), the “% Cell Viability” value was 49.0%.

With `Cc1ccc(N2CCN(C)CC2)cc1C(=O)N[C@H](C)c1cccc(N2CCNCC2)c1` [Example 105, 2-Methyl-5-(4-methylpiperazin-1-yl)-N-[(1R)-1-(3-piperazin-1-ylphenyl)ethyl]benzamide], the IC50 in series [1] (setting [3]) was under 5 µM. Besides, in series [2] (setting [4]), the “% Cell Viability” value is 113.3%.

On to `Cc1ccc(N2CCC(N)CC2)cc1C(=O)N[C@H](C)c1cccc2ccccc12` [Example 16, 5-(4-Amino-1-piperidyl)-2-methyl-N-[(1R)-1-(1-naphthyl)ethyl]benzamide], for which the half-maximal inhibitory concentration (IC50) in series [1] (setting [3]) is under 5 µM. Besides, the “% Cell Viability” value in series [2] (setting [4]) is given as 1.1%.

In the case of `Cc1ccc(N2CCN(C)CC2)cc1C(=O)N[C@H](C)c1cccc(-c2cccc(C(=O)N(C)C)c2)c1` [Example 47, N-[(1R)-1-[3-[3-(Dimethylcarbamoyl)phenyl]phenyl]ethyl]-2-methyl-5-(4-methylpiperazin-1-yl)benzamide], the concentration for half-maximal inhibition (IC50) in series [1] (setting [3]) is under 2 µM. Moreover, in series [2] (setting [4]), the “% Cell Viability” value was 54.0%.

For the compound `COc1ccc([C@@H](C)NC(=O)c2cc(N3CCN(C)CC3)ccc2C)cc1-c1cnn(C)c1C` [Example 246, N-[(1R)-1-[3-(1,5-Dimethylpyrazol-4-yl)-4-methoxy-phenyl]ethyl]-2-methyl-5-(4-methylpiperazin-1-yl)benzamide], the IC50 in series [1] (setting [3]) was under 2 µM. In addition, in series [2] (setting [4]), the “% Cell Viability” value came out at 81.4%.

As to `COc1ccc([C@@H](C)NC(=O)c2cc(N3CCN(C)CC3)ccc2C)cc1OCCN1CCOCC1` [Example 292, N-[(1R)-1-[4-Methoxy-3-(2-morpholinoethoxy)phenyl]ethyl]-2-methyl-5-(4-methylpiperazin-1-yl)benzamide], the IC50 in series [1] (setting [3]) was under 2 µM. For the same compound, the “% Cell Viability” value in series [2] (setting [4]) turned out to be 88.9%.
